Measurements reported in patent US20150141485A1, “PROGNOSIS AND TREATMENT OF LUNG CANCER USING miRNA-135b” (NATIONAL CHENG KUNG UNIVERSITY, priority 2013, published 2015).
Oligonucleotides are written 5' to 3', each unit as a sugar letter and its base; * is a phosphorothioate linkage, no mark a phosphodiester; rarer units and linkages stand in square brackets, end groups in braces. Plain capitals give the bases only. {Chol} = cholesterol; m = 2'-O-methyl

Experiments:
[1] = system: CL1-5-F4 cells; assay: Migration assay (culture inserts); type: cell-based, human; details: CL1-5-F4 cells transfected 48 hours, vs scramble (NC)
Experimental: (§1) CL1-5-F4 and Hop-62 cells were transfected with scramble (NC) of miR-135b-specific antagomir (Antago-135b) for 48 hours and the subjected to migration assays (FIG. 2d) and invasion assays (FIG. 2e) as described above. *P<0.05;**P<0.005 by Student's t-test.
(§2) For the migration assay, culture inserts (Ibidi, Munich, Germany) were inserted into 60-mm dishes. Next, the cell suspensions were seeded in each culture insert well at a concentration of 2.5×10^4 (CL1-0) or 3×10^4 (CL1-5-F4 and UACC-257) cells/mL. The culture inserts were removed to leave a gap of approximately 500 μm.

[2] = system: CL1-5-F4 cells; assay: Western blot of Hippo pathway proteins; type: cell-based, human; details: 72 hours
Experimental: (§3) Western bolt analysis of the Hippo pathway proteins in CL1-5-F4 and CL141 cells incubated with Scramble (NC) of Antago-135b for 72 hours. Quantitative RT-PCR was used to assay miR-135b knockdown activity.

[3] = system: CL1-5-F4 cells; assay: Western blot of endogenous LZTS1; type: cell-based, human; details: 100 nM, 48 hours
Experimental: CL1-5-F4 and UACC-257 cells were administrated with 100 nM of negative control (NC) or antago-135b for 48 hours. Total cell lysates were harvested for western blot analysis.

[4] = system: CL1-5 cells; assay: Orthotopic lung cancer model; type: in vivo, nude mice
Experimental: CL1-5 cells were implanted orthotopically into the left lungs of 6-weeks-old nude mice (n=9). A series of scramble antagomir (NC) or miR-135b antagomir (Antago-135b) intravenous injections were performed every 2 days after tumor cell implantation. Lungs were harvested 25 days after the cells were implanted. […] Arrows indicate the visible nodules. […] Data are expressed as mean±s.e.m. *P<0.05 by Student's t-test.
Mice bearing CL1-5 cells were subjected to scramble antagomir (NC) or miR-135b antagomir (Antago-135b) treatment. Animal survival was determine using Kaplan-Meier survival analysis and the log-rank test for data obtained 25 days after the cancer cells were orthotopically injected (n=9).
Next, the effects of miR-135b inhibition on tumor growth and metastasis in an orthotopic lung cancer model were checked. Seven intravenous injections of miR-135b antagomir were given 4 days after CL1-5 implantation.

[5] = system: CL141 cells; assay: Western blot of Hippo pathway proteins; type: cell-based; details: 72 hours
Experimental: as §3

[6] = system: LZTS1 3′-UTR; assay: Luciferase reporter assay, LZTS1 3'-UTR; type: cell-based; details: CL1-0 cells co-transfected with miR-135b, vs Scramble
Experimental: CL1-0 cells were co-transfected with miR-135b, wild-type LZTS1 3′-UTR along with Scramble or miR-135-specific antagomir (Antago-135b). Luciferase activity was measured and is presented as described in FIG. 5a. Mean±s.d. is shown, *P<0.05; **P<0.005 by Student's t-test.
One day before transfection, CL1-0 cells were seeded at a concentration of 2.5×10^4 per well. Next, the pClneo vector or miR-135b plasmid was co-transfected with the pGL3-target gene-3′UTR. The Renilla lunciferase plasmid (phRL-TK, Promega, Madison, Wis.) was co-transfected as transfection control. Cells were lysed 36 hours after transfection, and luciferase activity was measured using a Dual-Luciferase system (Promega, Madison, Wis.) according to the manufacture's protocol.

[7] = system: Hop-62 cells; assay: Transwell invasion assay; type: cell-based; details: Hop-62 cells transfected 48 hours, vs scramble (NC)
Experimental: as §1
Transwell chambers ([…], BD Falcon, Franklin Lakes, N.J.) were coated with the appropriate amount of Matrigel (BD Biosciences, San Jose, Calif.). Next, 2.5×10^4 cells were suspended in NuSerum-containing media (Gibco BRL, Grand Island N.Y., USA), seeded in the chamber and cultured, Cells that invaded the chamber from top to bottom were fixed with methanol and stained with a solution of propidium iodine (Sigma-Aldrich, St. Louis, Mo.). The propidiumiodine-positive signal was quantified using Analytical Imaging Station software package. Each sample was assayed in triplicate.

[8] = system: Hop-62 cells; assay: Migration assay (culture inserts); type: cell-based; details: Hop-62 cells transfected 48 hours, vs scramble (NC)
Experimental: as §1, §2

[9] = seven i.v. injections, 4 days after CL1-5 implantation, vs control lungs

With “5′mU(*)mC(*)mAmCmAmUmAmG-mGmAmAmUmGmAmAmAmAmGmCmC(*)mA(*)mU(*)mA(*)(3′-Ch1)3′ (SEQ ID NO:8) (mU*mC*mAmCmAmUmAmGmGmAmAmUmGmAmAmAmAmGmCmC*mA*mU*mA*{Chol}) [miR-135b antagomir]” as the substance, how does the migratory ability [1] read?
Its migratory ability is “inhibited these changes”.

And the “LATS2, β-TrCP and NDR2 expressions” value [2]?
The value was “induced”.

And the TAZ protein expression [2]?
Its TAZ protein expression is “reduced”.

And the LZTS1 expression [3]?
The LZTS1 expression was “significantly increased”.

And the orthotopic tumor growth [4, 9]?
The orthotopic tumor growth was “inhibited orthotopic tumor growth”.

And the “volume of lung metastases” value [4, 9]?
The value was “decrease the volume of lung metastases”.

And the survival rates ([4]; systemic delivery in orthotopic tumor-bearing mice)?
The survival rates was “increased survival rates”.

And the “LATS2, β-TrCP and NDR2 expressions” value [5]?
Its value is “induced”.

And the TAZ protein expression [5]?
The TAZ protein expression was “reduced”.

And the “suppressive effects of miR-135b on LZTS1 3′-UTR-carrying luciferase” value [6]?
Its value is “significantly reduced”.

And the invasive ability [7]?
The invasive ability was “inhibited these changes”.

And the migratory ability [8]?
The migratory ability was “inhibited these changes”.
